Legend:
Test in all cases: Bliss excess, mean over the matrix (fraction); higher = more synergy
[1] = test system: LB831-BLC (Bladder Carcinoma)
In short: (§1)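 Cell lines in DMEM/F12 or RPMI with 10% FBS were plated in 1536-well plates, held 24 hours at 37°C, 5% CO2, then given two-drug dose matrices for 72 hours (DMSO typically 0.2%). Viability was read by CellTiter-Glo 2.0 luminescence and scaled as inhibition from 0 (vehicle wells) to 1 (blank wells). Combination Emax is the second-highest inhibition in the matrix; Bliss excess is observed combination effect minus expected EA + EB − EA·EB, EA and EB being single-agent effects.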

[2] = test system: HCC-78 (Lung Adenocarcinoma)
In short: as §1

[3] = test system: RO82-W-1 (Thyroid Gland Carcinoma)
In short: as §1

[4] = test system: LU-135 (Small Cell Lung Carcinoma)
In short: as §1

[5] = test system: OVCA420 (Ovarian Carcinoma)
In short: as §1

[6] = test system: HOS (Osteosarcoma)
In short: as §1

[7] = test system: Hs-578-T (Breast Carcinoma)
In short: as §1

[8] = test system: SNU-5 (Gastric Carcinoma)
In short: as §1

[9] = test system: CAL-148 (Breast Carcinoma)
In short: as §1

[10] = test system: MFE-296 (Endometrial Carcinoma)
In short: as §1

[11] = test system: T98G (Glioblastoma)
In short: as §1

[12] = test system: SK-ES-1 (Ewing's Sarcoma)
In short: as §1

[13] = test system: HCC1806 (Breast Carcinoma)
In short: as §1

[14] = test system: KYSE-520 (Esophageal Squamous Cell Carcinoma)
In short: as §1

[15] = test system: NCI-H82 (Small Cell Lung Carcinoma)
In short: as §1

[16] = test system: ES4 (Ewing's Sarcoma)
In short: as §1

[17] = test system: EC-GI-10 (Esophageal Squamous Cell Carcinoma)
In short: as §1

[18] = test system: B-CPAP (Thyroid Gland Carcinoma)
In short: as §1

[19] = test system: KP-1N (Pancreatic Carcinoma)
In short: as §1

[20] = test system: CCRF-CEM (T-Lymphoblastic Leukemia)
In short: as §1

| Structure (SMILES) | Bliss excess [1] | Bliss excess [2] | Bliss excess [3] | Bliss excess [4] | Bliss excess [5] | Bliss excess [6] | Bliss excess [7] | Bliss excess [8] | Bliss excess [9] | Bliss excess [10] | Bliss excess [11] | Bliss excess [12] | Bliss excess [13] | Bliss excess [14] | Bliss excess [15] | Bliss excess [16] | Bliss excess [17] | Bliss excess [18] | Bliss excess [19] | Bliss excess [20] |
| --- | --- | --- | --- | --- | --- | --- | --- | --- | --- | --- | --- | --- | --- | --- | --- | --- | --- | --- | --- | --- |
| NC1(C(=O)N[C@@H](CCO)c2ccc(Cl)cc2)CCN(c2ncnc3[nH]ccc23)CC1 [Capivasertib] + Cn1cnc2c(F)c(Nc3ccc(Br)cc3Cl)c(C(=O)NOCCO)cc21 [Selumetinib] (first compound max 10 µM, 7x7, partner max 10 µM) | -0.133 | -0.009 | -0.0063 | 0.0413 | 0.0639 | 0.0007 | -0.0194 | 0.0345 | 0.0597 | -0.0133 | 0.0241 | 0.0507 | 0.0578 | -0.042 | -0.131 | -0.0219 | 0.0744 | 0.0496 | 0.0357 | 0.0792 |
| Cc1nc(Nc2ncc(C(=O)Nc3c(C)cccc3Cl)s2)cc(N2CCN(CCO)CC2)n1 [Dasatinib] + CC(=O)Nc1cccc(-n2c(=O)n(C3CC3)c(=O)c3c(Nc4ccc(I)cc4F)n(C)c(=O)c(C)c32)c1 [Trametinib] (first compound max 2 µM, 7x7, partner max 1 µM) | -0.0529 | -0.0361 | -0.0202 | -0.0258 | 0.025 | -0.0361 | -0.0526 | -0.0708 | -0.0252 | -0.0328 | 0.0187 | -0.0256 | -0.0461 | -0.0902 | -0.0149 | -0.0951 | -0.0871 | -0.0158 | 0.0493 | -0.0032 |
| COc1cccc2c1C(=O)c1c(O)c3c(c(O)c1C2=O)C[C@@](O)(C(=O)CO)C[C@@H]3O[C@H]1C[C@H](N)[C@H](O)[C@H](C)O1 [Doxorubicin] + Cc1cc2ncnn2cc1Nc1ncc2c(n1)n(C1CCOCC1)c(=O)n2C [AZD7648] (first compound max 1 µM, 7x7, partner max 10 µM) | 0.0858 | 0.049 | -0.0346 | 0.0388 | 0.0022 | 0.145 | 0.0412 | 0.007 | 0.165 | -0.0119 | 0.0257 | 0.143 | 0.0499 | -0.0086 | 0.0827 | 0.0761 | 0.0887 | 0.106 | 0.0574 | 0.123 |
| COc1cc2ncnc(Nc3ccc(F)c(Cl)c3)c2cc1OCCCN1CCOCC1 [Gefitinib] + CC(C)n1c(=O)n(C)c2cnc3cc(F)c(-c4ccc(OCCCN5CCCCC5)nc4)cc3c21 [AZD1390] (first compound max 10 µM, 7x7, partner max 0.3 µM) | -0.0482 | -0.0525 | -0.0586 | -0.0801 | -0.0193 | -0.0491 | -0.0685 | -0.0887 | -0.0344 | -0.0483 | -0.0557 | -0.0733 | -0.0425 | -0.043 | -0.0088 | -0.0177 | -0.0526 | -0.0752 | -0.0625 | -0.0419 |
| CS(=O)(=O)CCNCc1ccc(-c2ccc3ncnc(Nc4ccc(OCc5cccc(F)c5)c(Cl)c4)c3c2)o1 [Lapatinib] + C[C@@H](Oc1cc(-c2cnn(C3CCNCC3)c2)cnc1N)c1c(Cl)ccc(F)c1Cl [Crizotinib] (first compound max 10 µM, 7x7, partner max 10 µM) | -0.0321 | -0.0289 | -0.0392 | 0.0255 | 0.0287 | 0.0138 | -0.0984 | 0.0306 | -0.0105 | -0.0288 | -0.0861 | -0.0015 | -0.0266 | -0.0352 | -0.0273 | -0.0261 | -0.0379 | -0.0393 | -0.0435 | -0.0185 |
| CC(=O)c1c(C)c2cnc(Nc3ccc(N4CCNCC4)cn3)nc2n(C2CCCC2)c1=O [Palbociclib] + CC1(C)CCC(CN2CCN(c3ccc(C(=O)NS(=O)(=O)c4ccc(NCC5CCOCC5)c([N+](=O)[O-])c4)c(Oc4cnc5[nH]ccc5c4)c3)CC2)=C(c2ccc(Cl)cc2)C1 [Venetoclax] (first compound max 10 µM, 7x7, partner max 1 µM) | -0.0523 | -0.0244 | -0.0825 | 0.0482 | -0.0468 | -0.0218 | -0.0447 | 0.0453 | -0.0161 | -0.0262 | -0.0075 | 0.0758 | -0.0213 | -0.0442 | -0.0648 | -0.0334 | -0.0031 | 0.0002 | -0.0396 | -0.008 |
| CC(=O)c1c(C)c2cnc(Nc3ccc(N4CCNCC4)cn3)nc2n(C2CCCC2)c1=O [Palbociclib] + Cc1c2c(nn1C)CSCc1cc(n(C)n1)CSc1cc(c3ccccc3c1)OCCCc1c(C(=O)O)n(C)c3c-2c(Cl)ccc13 [AZD5991] (first compound max 10 µM, 7x7, partner max 1 µM) | -0.0092 | -0.0015 | -0.0283 | 0.0165 | -0.0313 | -0.0182 | 0.0238 | -0.0206 | -0.0063 | -0.0142 | 0.0003 | -0.0088 | -0.0164 | -0.0686 | -0.0534 | -0.046 | 0.0305 | -0.0722 | -0.0384 | -0.014 |
| CC(=O)c1c(C)c2cnc(Nc3ccc(N4CCNCC4)cn3)nc2n(C2CCCC2)c1=O [Palbociclib] + Cn1cnc2c(F)c(Nc3ccc(Br)cc3Cl)c(C(=O)NOCCO)cc21 [Selumetinib] (first compound max 10 µM, 7x7, partner max 10 µM) | -0.0339 | -0.0189 | -0.0414 | 0.0056 | -0.0157 | 0.0109 | 0.0135 | 0.0031 | -0.0462 | -0.0574 | -0.0103 | -0.0161 | 0.0382 | 0.0617 | -0.0216 | -0.0359 | -0.0407 | 0.0321 | -0.0715 | 0.0385 |
| COc1cccc(OCCCN)c1-c1cc(Nc2cnc(C#N)cn2)n[nH]1 [Prexasertib] + C=CCn1c(=O)c2cnc(Nc3ccc(N4CCN(C)CC4)cc3)nc2n1-c1cccc(C(C)(C)O)n1 [AZD1775] (first compound max 1 µM, partner max 1 µM) | 0.168 | 0.0774 | -0.126 | -0.0004 | 0.0044 | 0.0888 | -0.0242 | 0.0491 | 0.136 | 0.116 | -0.0232 | 0.0454 | 0.0552 | 0.0142 | 0.0778 | 0.0978 | 0.077 | 0.154 | 0.0763 | 0.0186 |
| COc1cccc(OCCCN)c1-c1cc(Nc2cnc(C#N)cn2)n[nH]1 [Prexasertib] + CCc1c2c(nc3ccc(O)cc13)-c1cc3c(c(=O)n1C2)COC(=O)[C@]3(O)CC [SN-38] (first compound max 1 µM, 7x7, partner max 0.3 µM) | 0.0581 | -0.0337 | 0.0431 | -0.0623 | 0.0326 | 0.0409 | 0.0856 | -0.0085 | -0.0388 | 0.0106 | 0.0121 | -0.0081 | -0.001 | 0.048 | 0.0347 | -0.0923 | 0.0252 | 0.0695 | 0 | -0.0078 |
| COc1cccc(OCCCN)c1-c1cc(Nc2cnc(C#N)cn2)n[nH]1 [Prexasertib] + CN(C)CCCOc1ccc(-c2ccc3ncc4c(c3c2)n(C2CCOCC2)c(=O)n4C)cn1 [AZD0156] (first compound max 1 µM, 7x7, partner max 1 µM) | 0.0252 | -0.0463 | -0.0684 | 0.0508 | -0.0279 | -0.0434 | 0.0101 | -0.0703 | -0.0115 | -0.0163 | 0.0132 | 0.0075 | -0.0262 | -0.0211 | 0.0117 | 0.0147 | -0.0056 | -0.0156 | 0.0236 | -0.058 |
| COc1cccc(OCCCN)c1-c1cc(Nc2cnc(C#N)cn2)n[nH]1 [Prexasertib] + C[C@@H]1COCCN1C2=NC(=NC(=C2)C3(CC3)[S@](=N)(=O)C)C4=C5C=CNC5=NC=C4 [AZD6738] (first compound max 1 µM, 7x7, partner max 10 µM) | 0.019 | 0.0318 | 0.005 | 0.0442 | -0.0214 | 0.0261 | -0.0779 | -0.0371 | 0.0988 | -0.0456 | 0.0453 | -0.0132 | -0.0472 | -0.0696 | -0.0186 | -0.0489 | 0.0193 | -0.0345 | 0.0331 | -0.0013 |
| COc1cccc(OCCCN)c1-c1cc(Nc2cnc(C#N)cn2)n[nH]1 [Prexasertib] + Cc1cc2ncnn2cc1Nc1ncc2c(n1)n(C1CCOCC1)c(=O)n2C [AZD7648] (first compound max 1 µM, 7x7, partner max 10 µM) | -0.0865 | -0.0841 | -0.058 | 0.025 | -0.0002 | -0.0393 | -0.0453 | -0.0111 | 0.0235 | -0.0093 | -0.0566 | -0.0257 | -0.0193 | -0.0177 | -0.0355 | -0.0121 | -0.0144 | 0.0049 | -0.0207 | -0.0076 |
| COc1cccc(OCCCN)c1-c1cc(Nc2cnc(C#N)cn2)n[nH]1 [Prexasertib] + O=C(c1cc(Cc2n[nH]c(=O)c3ccccc23)ccc1F)N1CCN(C(=O)C2CC2)CC1 [Olaparib] (first compound max 1 µM, 7x7, partner max 10 µM) | -0.0175 | -0.0733 | -0.0731 | -0.0079 | -0.0374 | -0.0168 | -0.0324 | -0.0633 | -0.0507 | -0.0516 | -0.134 | 0.0008 | -0.0284 | -0.111 | -0.0735 | -0.0699 | -0.0253 | -0.007 | 0.0018 | 0.0024 |
| COc1cc2c(cc1OCCCCCOc1cc3c(cc1OC)C(=O)N1C=C(C)C[C@H]1C=N3)N=C[C@@H]1CC(C)=CN1C2=O [SG3199] + O=C(c1cc(Cc2n[nH]c(=O)c3ccccc23)ccc1F)N1CCN(C(=O)C2CC2)CC1 [Olaparib] (first compound max 0.001 µM, 7x7, partner max 10 µM) | -0.0486 | -0.0294 | -0.0704 | 0.0232 | -0.0268 | -0.0232 | -0.0422 | -0.0105 | -0.0294 | -0.0639 | -0.0486 | -0.0326 | -0.0132 | -0.0137 | -0.0075 | -0.0097 | -0.011 | 0.0434 | 0.0163 | -0.0045 |
